Assay: molar heat capacity at constant pressure
Details: 101.33 kPa, Small (less than 1 g) adiabatic calorimetry

CCC(=O)O[C@]1(C(=O)COC(C)=O)CC[C@H]2[C@@H]3C[C@H](C)C4=CC(=O)C=C[C@]4(C)[C@H]3[C@@H](O)C[C@@]21C [Methylprednisolone aceponate]
Details	molar heat capacity at constant pressure [J/K/mol]
5 K, Crystal 2	1.87
7.53 K, Crystal 2	6.019
7.84 K, Crystal 2	6.56
8.09 K, Crystal 2	7.014
8.41 K, Crystal 2	7.67
8.68 K, Crystal 2	8.278
9 K, Crystal 2	8.893
9.32 K, Crystal 2	9.535
9.64 K, Crystal 2	10.2
9.98 K, Crystal 2	10.97
10 K, Crystal 2	11
10.31 K, Crystal 2	11.76
10.64 K, Crystal 2	12.47
10.99 K, Crystal 2	13.1
11.33 K, Crystal 2	13.78
11.69 K, Crystal 2	14.32
12.05 K, Crystal 2	15.03
12.88 K, Crystal 2	16.64
14.18 K, Crystal 2	19.38
15 K, Crystal 2	21.09
15.44 K, Crystal 2	22.08
16.83 K, Crystal 2	25.33
18.19 K, Crystal 2	28.78
19.58 K, Crystal 2	32.36
20 K, Crystal 2	33.51
22.18 K, Crystal 2	39.37
25 K, Crystal 2	47.69
25.63 K, Crystal 2	49.56
29.09 K, Crystal 2	59.46
30 K, Crystal 2	61.69
32.6 K, Crystal 2	68.53
36.13 K, Crystal 2	78.23
39.68 K, Crystal 2	88.41
40 K, Crystal 2	89.06
43.24 K, Crystal 2	97.8
46.82 K, Crystal 2	106.2
50 K, Crystal 2	115
50.41 K, Crystal 2	116.3
54 K, Crystal 2	126.6
57.6 K, Crystal 2	136
60 K, Crystal 2	142.6
61.21 K, Crystal 2	145.2
64.82 K, Crystal 2	155
68.42 K, Crystal 2	163.9
70 K, Crystal 2	167.5
72.02 K, Crystal 2	173
75.66 K, Crystal 2	181.2
79.32 K, Crystal 2	190.9
80 K, Crystal 2	193.1
82.52 K, Crystal 2	200.1
82.95 K, Crystal 2	200.9
85.14 K, Crystal 2	206.2
86.58 K, Crystal 2	209.8
87.56 K, Crystal 2	212.6
89.97 K, Crystal 2	218.2
90 K, Crystal 2	218.2
92.39 K, Crystal 2	223.5
94.8 K, Crystal 2	229
97.21 K, Crystal 2	234.8
97.3 K, Crystal 2	235.6
99.62 K, Crystal 2	240.5
100 K, Crystal 2	241.2
100.7 K, Crystal 2	243.6
102.02 K, Crystal 2	245.8
104.08 K, Crystal 2	251
104.42 K, Crystal 2	251.6
106.93 K, Crystal 2	257.8
107.83 K, Crystal 2	258.9
109.22 K, Crystal 2	263
109.71 K, Crystal 2	263.2
110 K, Crystal 2	264.5
111.62 K, Crystal 2	268.1
112.99 K, Crystal 2	270.3
114.02 K, Crystal 2	273.7
116 K, Crystal 2	277
116.42 K, Crystal 2	278.5
118.81 K, Crystal 2	283.7
119.02 K, Crystal 2	283.2
120 K, Crystal 2	286.4
121.2 K, Crystal 2	288.9
122.04 K, Crystal 2	290.1
123.59 K, Crystal 2	295.1
125.06 K, Crystal 2	297.7
125.98 K, Crystal 2	300
128.08 K, Crystal 2	305.6
128.36 K, Crystal 2	306
130 K, Crystal 2	309.4
130.74 K, Crystal 2	310.7
131.09 K, Crystal 1	312.1
133.12 K, Crystal 1	311.6
134.11 K, Crystal 1	310
135.5 K, Crystal 1	309.5
137.13 K, Crystal 1	310.6
137.88 K, Crystal 1	312.2
140 K, Crystal 1	315.4
140.15 K, Crystal 1	315.8
140.25 K, Crystal 1	315.6
142.62 K, Crystal 1	319.4
143.15 K, Crystal 1	320.6
144.98 K, Crystal 1	324.5
146.15 K, Crystal 1	326.3
147.34 K, Crystal 1	328.3
149.14 K, Crystal 1	331.8
149.69 K, Crystal 1	333.1
150 K, Crystal 1	333
152.05 K, Crystal 1	336.9
152.14 K, Crystal 1	336.7
154.41 K, Crystal 1	341
155.13 K, Crystal 1	342
156.76 K, Crystal 1	344
158.09 K, Crystal 1	347.4
159.09 K, Crystal 1	348.8
160 K, Crystal 1	351
161.07 K, Crystal 1	352.5
161.43 K, Crystal 1	353.5
163.77 K, Crystal 1	357.7
164.05 K, Crystal 1	358.2
166.12 K, Crystal 1	361.8
167.01 K, Crystal 1	363.8
168.46 K, Crystal 1	366.9
169.98 K, Crystal 1	368.9
170 K, Crystal 1	368.7
170.8 K, Crystal 1	371.1
172.94 K, Crystal 1	373.7
173.13 K, Crystal 1	375
175.46 K, Crystal 1	378.6
175.89 K, Crystal 1	379.5
177.8 K, Crystal 1	381
178.84 K, Crystal 1	383.9
180 K, Crystal 1	386.3
180.1 K, Crystal 1	385.2
181.78 K, Crystal 1	389.3
182.38 K, Crystal 1	390.4
184.68 K, Crystal 1	394.6
184.72 K, Crystal 1	394.9
186.99 K, Crystal 1	398.4
187.66 K, Crystal 1	399.4
189.31 K, Crystal 1	403.5
190 K, Crystal 1	404
190.59 K, Crystal 1	405.5
191.61 K, Crystal 1	407.4
193.51 K, Crystal 1	410.5
193.93 K, Crystal 1	410.9
196.2 K, Crystal 1	415.5
196.43 K, Crystal 1	414.4
198.49 K, Crystal 1	418.9
199.33 K, Crystal 1	420.1
200 K, Crystal 1	421.8
200.78 K, Crystal 1	422.8
202.47 K, Crystal 1	425.8
203.07 K, Crystal 1	427.7
205.36 K, Crystal 1	432.9
205.78 K, Crystal 1	432.4
207.65 K, Crystal 1	435.8
209.13 K, Crystal 1	438
209.94 K, Crystal 1	439.7
210 K, Crystal 1	439.9
212.24 K, Crystal 1	444.3
212.49 K, Crystal 1	444.8
214.54 K, Crystal 1	448.4
215.85 K, Crystal 1	450.6
217 K, Crystal 1	451.2
219.13 K, Crystal 1	456
219.21 K, Crystal 1	456.5
220 K, Crystal 1	458.2
221.43 K, Crystal 1	460.8
222.56 K, Crystal 1	463.6
223.73 K, Crystal 1	465.6
226.03 K, Crystal 1	469.3
228.32 K, Crystal 1	473.5
230 K, Crystal 1	476.5
230.63 K, Crystal 1	477.8
232.91 K, Crystal 1	481.1
235.22 K, Crystal 1	485.8
237.52 K, Crystal 1	490.6
239.83 K, Crystal 1	495.3
240 K, Crystal 1	494.9
242.15 K, Crystal 1	498.7
244.46 K, Crystal 1	503.6
246.77 K, Crystal 1	507.1
249.09 K, Crystal 1	511.5
250 K, Crystal 1	513.6
251.4 K, Crystal 1	516.4
253.72 K, Crystal 1	521
255.92 K, Crystal 1	524.6
256.03 K, Crystal 1	524.6
258.35 K, Crystal 1	529.7
259.52 K, Crystal 1	530.8
260 K, Crystal 1	532.3
260.9 K, Crystal 1	534.6
262.9 K, Crystal 1	537.3
262.99 K, Crystal 1	536.3
265.31 K, Crystal 1	542.1
266.27 K, Crystal 1	542.9
267.63 K, Crystal 1	546.6
269.63 K, Crystal 1	548.4
269.94 K, Crystal 1	551.7
270 K, Crystal 1	550.2
271.74 K, Crystal 1	553.4
272.99 K, Crystal 1	555.5
274.21 K, Crystal 1	556.6
276.35 K, Crystal 1	562.2
276.54 K, Crystal 1	562
278.86 K, Crystal 1	565.7
279.7 K, Crystal 1	568.4
280 K, Crystal 1	568.6
281.15 K, Crystal 1	570.9
283.05 K, Crystal 1	574.7
283.4 K, Crystal 1	575.9
285.69 K, Crystal 1	580.8
286.39 K, Crystal 1	581.4
287.93 K, Crystal 1	584.1
289.74 K, Crystal 1	587.6
290 K, Crystal 1	588.2
290.2 K, Crystal 1	587.9
292.47 K, Crystal 1	592.6
293.07 K, Crystal 1	594.1
294.75 K, Crystal 1	598.5
296.41 K, Crystal 1	600.8
297.02 K, Crystal 1	602.8
298.15 K, Crystal 1	604.8
299.28 K, Crystal 1	607.2
299.74 K, Crystal 1	606.1
300 K, Crystal 1	608.6
301.54 K, Crystal 1	611.3
303.07 K, Crystal 1	615.7
303.8 K, Crystal 1	617.2
306.05 K, Crystal 1	621.4
306.4 K, Crystal 1	622.2
308.26 K, Crystal 1	624.1
309.65 K, Crystal 1	627.8
310 K, Crystal 1	628.6
310.51 K, Crystal 1	629.5
312.76 K, Crystal 1	633
312.99 K, Crystal 1	634.1
315.01 K, Crystal 1	636.6
316.33 K, Crystal 1	639.9
317.25 K, Crystal 1	644.1
319.5 K, Crystal 1	647.2
319.67 K, Crystal 1	646.8
320 K, Crystal 1	647.5
321.75 K, Crystal 1	651.6
323.01 K, Crystal 1	652.2
324 K, Crystal 1	655.2
326.24 K, Crystal 1	660
326.36 K, Crystal 1	659.5
328.49 K, Crystal 1	664.4
329.71 K, Crystal 1	665.6
330 K, Crystal 1	666.6
330.74 K, Crystal 1	670
332.99 K, Crystal 1	672.4
333.06 K, Crystal 1	673.1
335.24 K, Crystal 1	679.6
336.41 K, Crystal 1	679.8
337.49 K, Crystal 1	684.3
339.74 K, Crystal 1	691.4
339.75 K, Crystal 1	688.9
340 K, Crystal 1	691.3
341.99 K, Crystal 1	697.1
343.1 K, Crystal 1	701.5
346 K, Crystal 1	713.9
346.44 K, Crystal 1	717.2

— the NIST ThermoML archive (doi:10.1016/j.jct.2016.08.022)
